Assay results: paper PMC7092418 (Genes and Environment, 2020)

Tests used:
[1] = tested on: S. typhimurium YG9028; settings: Salmonella typhimurium
[2] = tested on: rat; settings: in vivo; cited from earlier work

Compound | Specific mutagenicity [1] [revertants/plate/nmole] | Carcinogenicity [2]
COS(C)(=O)=O [MMS, Methylmethane sulfonate] | 0.205 | 
[N-]=[N+]=[N-].[Na+] [sodium azide] |  | non-carcinogenic
